The text below walks through data of the supplement of paper PMC10307832.

Assay in all cases: relative viability (nuclei count vs DMSO), 5 days (fraction); higher = more cells survive
Compound in the assay “Omipalisib + AZD7762”: COc1ncc(-c2ccc3nccc(-c4ccnnc4)c3c2)cc1NS(=O)(=O)c1ccc(F)cc1F [Omipalisib] + NC(=O)Nc1cc(-c2cccc(F)c2)sc1C(=O)N[C@H]1CCCNC1 [AZD7762] (partner 0.2 µM)
The procedure, abridged:
(§1)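 Lung cancer cell lines, seeded in 1536-well plates, were treated the following day by pin tool with a single drug or with five library-drug doses (not always all listed) in √10 steps on top of a fixed anchor-drug dose. Cells were fixed and nuclei stained in one step after 5 days, and nuclei were counted. Relative viability is the nuclei count for treated wells divided by that for vehicle wells, reported as medians of duplicate plates.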

Compound in the assay “Omipalisib + Pictilisib”: COc1ncc(-c2ccc3nccc(-c4ccnnc4)c3c2)cc1NS(=O)(=O)c1ccc(F)cc1F [Omipalisib] + CS(=O)(=O)N1CCN(Cc2cc3nc(-c4cccc5[nH]ncc45)nc(N4CCOCC4)c3s2)CC1 [Pictilisib] (partner 1 µM)
The procedure, abridged: as §1

Compound in the assay “Omipalisib + Linsitinib”: COc1ncc(-c2ccc3nccc(-c4ccnnc4)c3c2)cc1NS(=O)(=O)c1ccc(F)cc1F [Omipalisib] + C[C@]1(O)C[C@@H](c2nc(-c3ccc4ccc(-c5ccccc5)nc4c3)c3c(N)nccn32)C1 [Linsitinib] (partner 1 µM)
The procedure, abridged: as §1

Compound in the assay “Omipalisib + Lapatinib”: COc1ncc(-c2ccc3nccc(-c4ccnnc4)c3c2)cc1NS(=O)(=O)c1ccc(F)cc1F [Omipalisib] + CS(=O)(=O)CCNCc1ccc(-c2ccc3ncnc(Nc4ccc(OCc5cccc(F)c5)c(Cl)c4)c3c2)o1 [Lapatinib] (partner 2 µM)
Summed up:
as §1

Compound in the assay “Omipalisib + Olaparib”: COc1ncc(-c2ccc3nccc(-c4ccnnc4)c3c2)cc1NS(=O)(=O)c1ccc(F)cc1F [Omipalisib] + O=C(c1cc(Cc2n[nH]c(=O)c3ccccc23)ccc1F)N1CCN(C(=O)C2CC2)CC1 [Olaparib] (partner 8 µM)
The procedure, abridged: as §1

Compound in the assay “Omipalisib + Tozasertib”: COc1ncc(-c2ccc3nccc(-c4ccnnc4)c3c2)cc1NS(=O)(=O)c1ccc(F)cc1F [Omipalisib] + Cc1cc(Nc2cc(N3CCN(C)CC3)nc(Sc3ccc(NC(=O)C4CC4)cc3)n2)n[nH]1 [Tozasertib] (partner 0.1 µM)
The procedure, abridged:
as §1

As for NCI-H358, the relative viability with Omipalisib + AZD7762 (first compound 0.0003 µM) amounted to 0.43; in the assay with Omipalisib + AZD7762 (first compound 0.003 µM) it was 0.366; with Omipalisib + AZD7762 (first compound 0.03 µM), 0.244; with Omipalisib + Pictilisib (first compound 0.0003 µM) it was 0.285; with Omipalisib + Pictilisib (first compound 0.003 µM), 0.272; with Omipalisib + Pictilisib (first compound 0.03 µM) it was 0.278. The relative viability with Omipalisib + Linsitinib (first compound 0.0003 µM) is 0.639; with Omipalisib + Linsitinib (first compound 0.003 µM) it was 0.457; with Omipalisib + Linsitinib (first compound 0.03 µM), 0.289; with Omipalisib + Lapatinib (first compound 0.0003 µM), 0.388; with Omipalisib + Lapatinib (first compound 0.003 µM), 0.367; with Omipalisib + Lapatinib (first compound 0.03 µM) it was 0.325. Also, the relative viability with Omipalisib + Olaparib (first compound 0.0003 µM) amounted to 0.544; in the assay with Omipalisib + Olaparib (first compound 0.003 µM), 0.38; with Omipalisib + Olaparib (first compound 0.03 µM), 0.324; with Omipalisib + Tozasertib (first compound 0.0003 µM) it was 0.126; in the assay with Omipalisib + Tozasertib (first compound 0.003 µM), 0.108; with Omipalisib + Tozasertib (first compound 0.03 µM), 0.0977.

Take HOP-62: the relative viability with Omipalisib + AZD7762 (first compound 0.0003 µM) worked out at 0.532; in the assay with Omipalisib + AZD7762 (first compound 0.003 µM), 0.55; in the assay with Omipalisib + AZD7762 (first compound 0.03 µM) it was 0.438; with Omipalisib + Pictilisib (first compound 0.0003 µM), 0.745; in the assay with Omipalisib + Pictilisib (first compound 0.003 µM), 0.538; with Omipalisib + Pictilisib (first compound 0.03 µM), 0.595. The relative viability in the assay with Omipalisib + Linsitinib (first compound 0.0003 µM) was determined as 1.11; in the assay with Omipalisib + Linsitinib (first compound 0.003 µM), 0.779; with Omipalisib + Linsitinib (first compound 0.03 µM), 0.559; in the assay with Omipalisib + Lapatinib (first compound 0.0003 µM) it was 0.946; in the assay with Omipalisib + Lapatinib (first compound 0.003 µM), 0.901; with Omipalisib + Lapatinib (first compound 0.03 µM), 0.702. Further, the relative viability in the assay with Omipalisib + Olaparib (first compound 0.0003 µM) was 0.264; with Omipalisib + Olaparib (first compound 0.003 µM) it was 0.548; with Omipalisib + Olaparib (first compound 0.03 µM), 0.486; with Omipalisib + Tozasertib (first compound 0.0003 µM), 0.399; with Omipalisib + Tozasertib (first compound 0.003 µM), 0.356; with Omipalisib + Tozasertib (first compound 0.03 µM), 0.3.

As for NCI-H1993, the relative viability with Omipalisib + AZD7762 (first compound 0.0003 µM) is 0.45; with Omipalisib + AZD7762 (first compound 0.003 µM) it was 0.403; with Omipalisib + AZD7762 (first compound 0.03 µM), 0.382; with Omipalisib + Pictilisib (first compound 0.0003 µM), 0.837; in the assay with Omipalisib + Pictilisib (first compound 0.003 µM), 0.861; with Omipalisib + Pictilisib (first compound 0.03 µM) it was 0.912. The relative viability with Omipalisib + Linsitinib (first compound 0.0003 µM) was found to be 0.697; in the assay with Omipalisib + Linsitinib (first compound 0.003 µM) it was 0.765; with Omipalisib + Linsitinib (first compound 0.03 µM), 0.589; with Omipalisib + Lapatinib (first compound 0.0003 µM), 0.812; with Omipalisib + Lapatinib (first compound 0.003 µM) it was 0.809; with Omipalisib + Lapatinib (first compound 0.03 µM), 0.588. Further, the relative viability with Omipalisib + Olaparib (first compound 0.0003 µM) is 1.05; with Omipalisib + Olaparib (first compound 0.003 µM), 0.624; with Omipalisib + Olaparib (first compound 0.03 µM) it was 0.398; in the assay with Omipalisib + Tozasertib (first compound 0.0003 µM), 0.575; in the assay with Omipalisib + Tozasertib (first compound 0.003 µM), 0.5; with Omipalisib + Tozasertib (first compound 0.03 µM) it was 0.499.

For A-427, the relative viability with Omipalisib + AZD7762 (first compound 0.0003 µM) worked out at 0.715; with Omipalisib + AZD7762 (first compound 0.003 µM), 0.628; with Omipalisib + AZD7762 (first compound 0.03 µM) it was 0.579; with Omipalisib + Pictilisib (first compound 0.0003 µM), 0.729; with Omipalisib + Pictilisib (first compound 0.003 µM), 0.697; with Omipalisib + Pictilisib (first compound 0.03 µM), 0.744. For the same cell line, the relative viability with Omipalisib + Linsitinib (first compound 0.0003 µM) turned out to be 1.11; in the assay with Omipalisib + Linsitinib (first compound 0.003 µM), 1.09; with Omipalisib + Linsitinib (first compound 0.03 µM) it was 0.968; with Omipalisib + Lapatinib (first compound 0.0003 µM), 1.08; with Omipalisib + Lapatinib (first compound 0.003 µM), 0.897; in the assay with Omipalisib + Lapatinib (first compound 0.03 µM) it was 1.05. Moreover, the relative viability in the assay with Omipalisib + Olaparib (first compound 0.0003 µM) is 0.699; in the assay with Omipalisib + Olaparib (first compound 0.003 µM), 0.604; in the assay with Omipalisib + Olaparib (first compound 0.03 µM), 0.611; in the assay with Omipalisib + Tozasertib (first compound 0.0003 µM), 0.206; with Omipalisib + Tozasertib (first compound 0.003 µM), 0.188; in the assay with Omipalisib + Tozasertib (first compound 0.03 µM), 0.163.

In the case of 201T, the relative viability came out at 0.592 in the assay with Omipalisib + AZD7762 (first compound 0.0003 µM); 0.516 with Omipalisib + AZD7762 (first compound 0.003 µM); 0.459 with Omipalisib + AZD7762 (first compound 0.03 µM); 0.706 in the assay with Omipalisib + Pictilisib (first compound 0.0003 µM); 0.668 with Omipalisib + Pictilisib (first compound 0.003 µM); 0.554 with Omipalisib + Pictilisib (first compound 0.03 µM). Besides, the relative viability in the assay with Omipalisib + Linsitinib (first compound 0.0003 µM) is 1.03; in the assay with Omipalisib + Linsitinib (first compound 0.003 µM), 0.916; with Omipalisib + Linsitinib (first compound 0.03 µM), 0.769; in the assay with Omipalisib + Lapatinib (first compound 0.0003 µM) it was 1.02; with Omipalisib + Lapatinib (first compound 0.003 µM), 0.935; with Omipalisib + Lapatinib (first compound 0.03 µM), 0.936. Further, the relative viability with Omipalisib + Olaparib (first compound 0.0003 µM) was found to be 0.803; with Omipalisib + Olaparib (first compound 0.003 µM) it was 0.859; with Omipalisib + Olaparib (first compound 0.03 µM), 0.526; with Omipalisib + Tozasertib (first compound 0.0003 µM) it was 0.883; with Omipalisib + Tozasertib (first compound 0.003 µM), 0.894; in the assay with Omipalisib + Tozasertib (first compound 0.03 µM) it was 0.473.

Take NCI-H1651: the relative viability in the assay with Omipalisib + AZD7762 (first compound 0.0003 µM) stood at 0.521; in the assay with Omipalisib + AZD7762 (first compound 0.003 µM), 0.434; with Omipalisib + AZD7762 (first compound 0.03 µM), 0.359; with Omipalisib + Pictilisib (first compound 0.0003 µM), 0.545; with Omipalisib + Pictilisib (first compound 0.003 µM), 0.512; with Omipalisib + Pictilisib (first compound 0.03 µM), 0.458. Further, the relative viability with Omipalisib + Linsitinib (first compound 0.0003 µM) was 0.931; in the assay with Omipalisib + Linsitinib (first compound 0.003 µM), 0.737; in the assay with Omipalisib + Linsitinib (first compound 0.03 µM), 0.417; in the assay with Omipalisib + Lapatinib (first compound 0.0003 µM), 0.538; with Omipalisib + Lapatinib (first compound 0.003 µM), 0.65; in the assay with Omipalisib + Lapatinib (first compound 0.03 µM), 0.44. The relative viability came to 0.177 with Omipalisib + Olaparib (first compound 0.0003 µM); 0.177 with Omipalisib + Olaparib (first compound 0.003 µM); 0.172 with Omipalisib + Olaparib (first compound 0.03 µM); 0.711 in the assay with Omipalisib + Tozasertib (first compound 0.0003 µM); 0.384 with Omipalisib + Tozasertib (first compound 0.003 µM); 0.539 in the assay with Omipalisib + Tozasertib (first compound 0.03 µM).

LC-2-ad: the relative viability with Omipalisib + AZD7762 (first compound 0.0003 µM) came out at 0.855; in the assay with Omipalisib + AZD7762 (first compound 0.003 µM) it was 0.762; with Omipalisib + AZD7762 (first compound 0.03 µM), 0.464; with Omipalisib + Pictilisib (first compound 0.0003 µM), 0.517; with Omipalisib + Pictilisib (first compound 0.003 µM), 0.582; in the assay with Omipalisib + Pictilisib (first compound 0.03 µM) it was 0.238. Further, the relative viability with Omipalisib + Linsitinib (first compound 0.0003 µM) worked out at 0.848; in the assay with Omipalisib + Linsitinib (first compound 0.003 µM) it was 0.587; with Omipalisib + Linsitinib (first compound 0.03 µM), 0.314; with Omipalisib + Lapatinib (first compound 0.0003 µM) it was 0.933; with Omipalisib + Lapatinib (first compound 0.003 µM), 0.784; with Omipalisib + Lapatinib (first compound 0.03 µM), 0.745. The relative viability turned out to be 0.779 with Omipalisib + Olaparib (first compound 0.0003 µM); 0.796 with Omipalisib + Olaparib (first compound 0.003 µM); 0.639 with Omipalisib + Olaparib (first compound 0.03 µM); 0.349 with Omipalisib + Tozasertib (first compound 0.0003 µM); 0.401 with Omipalisib + Tozasertib (first compound 0.003 µM); 0.289 in the assay with Omipalisib + Tozasertib (first compound 0.03 µM).

As to NCI-H1734, the relative viability in the assay with Omipalisib + AZD7762 (first compound 0.0003 µM) is 0.495; in the assay with Omipalisib + AZD7762 (first compound 0.003 µM), 0.321; with Omipalisib + AZD7762 (first compound 0.03 µM), 0.201; with Omipalisib + Pictilisib (first compound 0.0003 µM) it was 0.461; in the assay with Omipalisib + Pictilisib (first compound 0.003 µM) it was 0.307; with Omipalisib + Pictilisib (first compound 0.03 µM), 0.389. In addition, the relative viability in the assay with Omipalisib + Linsitinib (first compound 0.0003 µM) came to 0.731; in the assay with Omipalisib + Linsitinib (first compound 0.003 µM), 0.484; with Omipalisib + Linsitinib (first compound 0.03 µM), 0.359; with Omipalisib + Lapatinib (first compound 0.0003 µM), 0.943; in the assay with Omipalisib + Lapatinib (first compound 0.003 µM) it was 0.699; in the assay with Omipalisib + Lapatinib (first compound 0.03 µM), 0.551. Besides, the relative viability in the assay with Omipalisib + Olaparib (first compound 0.0003 µM) amounted to 0.56; with Omipalisib + Olaparib (first compound 0.003 µM), 0.364; with Omipalisib + Olaparib (first compound 0.03 µM), 0.226; in the assay with Omipalisib + Tozasertib (first compound 0.0003 µM), 0.243; with Omipalisib + Tozasertib (first compound 0.003 µM) it was 0.233; in the assay with Omipalisib + Tozasertib (first compound 0.03 µM), 0.221.
